# Source: patent US10912749B2, “Conjugate acid salt of N,N-dimethylglycine with organic acid, and composition and use thereof” (GUANGZHOU INSIGHTER BIOTECHNOLOGY CO., LTD., priority 2017, dated 2021)
# Structures can show the parent of a compound that is named as a salt. Marks after values point to notes of the source that are not given here.
# What was measured:
# [1] = High-humidity stability test; format: physicochemical; conditions: for hygroscopicity (in words): 25° C. and RH 95%, weight gains at day 5 turned the samples into water-like status; for hygroscopic weight gain Day 5 (%) / hygroscopic weight gain Day 10 (%): 25° C., RH 95%±1%, mean value±standard error, three parallels
# Experimental: Method: A KNO3 saturated solution (25° C., […]) was placed in the lower part of a constant-temperature and constant-humidity sealed container. The test samples, three parallels for each test sample, were placed at 25° C. and RH 95%±1% for 10 days, and their average weight gains were measured at day 5 and day 10.
# Sanhuang broilers = assay: Breeding experiment in broiler feed (production performance); format: in vivo
# Experimental: The experiment was carried out by single-factor randomized design. 1080 22-day-old Sanhuang broilers having similar body weight (averagely 153 g) were collected and randomly divided into 9 groups, 6 replicates in each group, 20 broilers in each replicate, with equal numbers of males and females. The henhouse and utensils were disinfected before the experiment. The broilers were kept in cages in the same henhouse under the same breeding conditions during the experiment. The basic diets mainly composed of corn and soybean meal, and no other antioxidant ingredients and growth promoters were added during the whole breeding process. The groups included a blank group, a control group, and experiment groups 1-7. […] For each replicate, the broilers were weighed (stopped feeding for 12 hours while water supply was maintained) at 42-day-old and their feed consumptions were recorded so as to calculate the average daily feed intake (ADFI), average daily weight gain (ADG) and feed conversion ratio (FCR). The experiment data were analyzed with SPSS18 software. The data were first analyzed by single factor analysis of variance (ANOVA), and if the differences between the groups were significant, multiple comparisons were performed using Duncan's method wherein the significance level was 0.05.
# grass carps = assay: Growth promotion experiment in aquatic feed; format: in vivo; conditions: 450 ppm in feed, 8 weeks; for SR (%): survival rate
# Experimental: Test fish: The experiment fish were grass carps, born at the year of the test, from Dafeng hatchery in Huizhou City, Guangdong Province. Healthy and lively grass carps of the same size were reared in big net cages (4×2×1.5 m^3) for four weeks before the breeding experiment. The experiment system included floating small net cages (1.1×1.1×1.1 m^3), each small net cage was provided with an aerator and aerated 24 hours every day. […] 384 fish which were similar in body weight and had been starved for 1 day were randomly divided into 8 groups, 4 replicates in each group and 12 fish in each replicate. The fish of each replicate were weighed and transferred to […] net cages, and fed with different test feeds respectively.
# Experiment feeds: The experiment feeds were prepared according to Table 6. The groups were respectively provided with different conjugate acid salts of N,N-dimethylglycine with metal and organic acid in the same concentration according to Table 7. Raw materials of the feed were ultra-pulverized, and then turned into floating expanded feed having a particle size of 3 mm by using a feed extruder from Jiangsu Muyang Group Co., Ltd. wherein the extruding temperature was 130° C., and 3% of soybean oil was sprayed on the feed using an oil sprayer. The feed was then sealed and stored in a cool place for later use.
# Test management: The experiment was carried out with diet restriction, the diet amount was adjusted once a week, the feeding level (based on initial weight) of each group was exactly the same, and feeding was conducted twice every day (at 7:30 and 15:00). The experiment was carried out for 8 weeks. During the experiment, water quality was monitored regularly to maintain the following conditions: water temperature 26.88±3.08° C., DO>5.0 mg O L^−1, pH 7.8, ammonia nitrogen <0.50 mg N L^−1, and nitrite nitrogen <0.05 mg N L^1.
# Parameter statistics: In the experiment, the fish in each net cage were weighed as a whole after starved for 1 day so as to calculate their weight gain (WG, %), feed conversion ratio (FCR) and survival rate (SR, %), through the following formula. Weight gain (WG, %)=100×(average final weight−average initial weight)/average initial weight Feed conversion ratio (FCR)=feed intake/fish weight gain Survival rate (SR, %)=100×fish amount at the end of the test/fish amount at the beginning of the test
Compound,hygroscopicity (in words) [1],hygroscopic weight gain Day 5 (%) [1],hygroscopic weight gain Day 10 (%) [1],"breeding effect with respect to feed conversion efficiency compared with sodium N,N-dimethylglycinate (Sanhuang broilers)",(FCR) (grass carps),Final weight (grass carps),Weight gain (%) (grass carps),SR (%) (grass carps)
"CN(C)CC(=O)O.Cl [Sample 1, N,N-dimethylglycine hydrochloride]",very high hygroscopicity,79.86 ± 0.94%,80.69 ± 0.59%,–,–,–,–,–
"CN(C)CC(=O)[O-].[Na+] [Sample 2, Sodium N,N-dimethylglycinate]",very high hygroscopicity,49.09 ± 1.14%,52.44 ± 0.48%,–,–,–,–,–
"CN(C)CC(=O)[O-].CN(C)CC(=O)[O-].O=C(O)c1ccccc1.O=C(O)c1ccccc1.[Ca+2] [Sample 5, Conjugate acid salt of calcium N,N-dimethylglycinate with benzoic acid]",–,–,3.69 ± 0.28%,"equivalent to that of sodium N,N-dimethylglycinate",1.48 ± 0.03,586.87 ± 10.44 g,134.96 ± 2.82%,83.10 ± 3.65^b %
"CN(C)CC(=O)[O-].CN(C)CC(=O)[O-].O=C(O)/C=C/C(=O)O.[Ca+2] [Sample 6, Conjugate acid salt of calcium N,N-dimethylglycinate with fumaric acid]",–,–,–,–,1.48 ± 0.03,589.33 ± 12.75 g,138.98 ± 3.02%,83.90 ± 5.30^b %
"CCCCCCCCCCCCCC(=O)O.CCCCCCCCCCCCCC(=O)O.CN(C)CC(=O)[O-].CN(C)CC(=O)[O-].[Ca+2] [Sample 7, Conjugate acid salt of calcium N,N-dimethylglycinate with tetradecanoic acid]",–,–,3.06 ± 0.29%,–,1.46 ± 0.04,585.22 ± 11.23 g,134.40 ± 2.90%,73.00 ± 3.63^b %
"CN(C)CC(=O)[O-].CN(C)CC(=O)[O-].O=C(O)c1ccccc1.O=C(O)c1ccccc1.[Cu+2] [Sample 8, Conjugate acid salt of copper N,N-dimethylglycinate with benzoic acid]",–,–,–,–,1.41 ± 0.03,598.68 ± 9.66 g,143.40 ± 10.09%,80.04 ± 3.80^b %
"CN(C)CC(=O)[O-].CN(C)CC(=O)[O-].O=C(O)/C=C/C(=O)O.[Cu+2] [Sample 9, Conjugate acid salt of copper N,N-dimethylglycinate with fumaric acid]",–,–,–,–,1.43 ± 0.03,598.12 ± 9.27 g,139.12 ± 2.34%,83.96 ± 5.68^b %
"CN(C)CC(=O)[O-].CN(C)CC(=O)[O-].O=C(O)c1ccccc1.O=C(O)c1ccccc1.[Zn+2] [Sample 10, Conjugate acid salt of zinc N,N-dimethylglycinate with benzoic acid]",–,–,–,–,1.45 ± 0.03,597.66 ± 9.69 g,133.08 ± 4.70%,78.04 ± 4.21^b %
"CN(C)CC(=O)[O-].CN(C)CC(=O)[O-].O=C(O)/C=C/C(=O)O.[Zn+2] [Sample 11, Conjugate acid salt of zinc N,N-dimethylglycinate with fumaric acid]",–,–,–,–,1.44 ± 0.02,600.00 ± 9.30 g,139.98 ± 3.58%,84.94 ± 4.26^b %
"CN(C)CC(=O)[O][Zn][O]C(=O)CN(C)C [Sample 11, Conjugate acid salt of zinc N,N-dimethylglycinate with fumaric acid]",–,–,2.88 ± 0.22%,–,–,–,–,–
"Calcium N,N-dimethylglycinate [Sample 3]",very high hygroscopicity,38.40 ± 0.22%,41.83 ± 0.35%,–,–,–,–,–
